One series deals with cytochrome P450 2C8 (Homo sapiens (Human), UniProt P10632). Description: biochemical.
Series [1] concerns the target T1, neutrophil elastase (Homo sapiens (Human), UniProt P08246). The series is described as follows: biochemical.
The target in series [2] is T1, neutrophil elastase. Description: biochemical. Type of series: biochemical.
Description: Human Neutrophil Elastase Assay
All other materials were of the highest grade commercially available.
The following buffers were used: Compound buffer: 100 mM Tris, 500 mM NaCl, adjusted to pH 7.5; Assay buffer: 100 mM Tris, 500 mM NaCl, adjusted to pH 7.5, containing 0.01% BSA.
Assay conditions: Test compounds were prediluted in DMSO and subsequently in compound buffer (5% DMSO final). […] After inactivation of the enzyme, fluorescence intensities were measured at 380 nm excitation and 460 nm emission wavelengths.
Each plate contains wells with a high value control (DMSO+enzyme+substrate) and wells with a low value control (DMSO+inactivated enzyme+substrate). IC50 values were estimated using a sigmoidal concentration response curve with variable slope. Means of low values were taken as 0%, means of high values as 100%.
Another series in a line: in vitro. Type of series: in vitro ADME. To be noted: human, pH 7.2, 37° C.; for Papp A→B at 10 μM: Caco-2, pH 7.2, Caco-2, apical-to-basal, read-out: PEAB; for Papp B→A at 10 μM: Caco-2, pH 7.2, Caco-2, basal-to-apical, read-out: PEBA.
For the next series, the target named is hERG potassium channel (Homo sapiens (Human), UniProt Q12809). Description: in vitro.
The target in a further series is cytochrome P450 2C9 (Homo sapiens (Human), UniProt P11712). The series is described as follows: biochemical.
Another series addresses cytochrome P450 2C19 (Homo sapiens (Human), UniProt P33261). The series is described as follows: biochemical.
Another series is described as follows: physchem. The class given is physicochemical. The following applies: for solubility at 24 h: McIlvaine buffer pH 6.8 containing 2.5% DMSO, pH 6.8, aqueous buffer, kinetic from dmso stock, McIlvaine buffer pH 6.8, 2.5% DMSO.
Series [3] in a line: Metabolic stability with human liver microsomes. The class given is in vitro ADME. The following applies: for half-life at 1 μM: human, pH 7.6, pooled human liver microsomes, read-out: t1/2 INVITRO. (In general: Liver microsomes are vesicles of endoplasmic reticulum, rich in cytochrome P450 enzymes.)
The next series deals with Caco-2 cells. The series is described as follows: in vitro. The class given is in vitro ADME. The following applies: pH 7.2.
Where [4] appears, read: pooled human liver microsomes, 1 μM test compound, 37° C.

Values after ≈ are worked out from the molar mass of the structure shown. Where two headings read alike, the source gives them in different places.

T1 sequence (P08246 whole entry, looked up): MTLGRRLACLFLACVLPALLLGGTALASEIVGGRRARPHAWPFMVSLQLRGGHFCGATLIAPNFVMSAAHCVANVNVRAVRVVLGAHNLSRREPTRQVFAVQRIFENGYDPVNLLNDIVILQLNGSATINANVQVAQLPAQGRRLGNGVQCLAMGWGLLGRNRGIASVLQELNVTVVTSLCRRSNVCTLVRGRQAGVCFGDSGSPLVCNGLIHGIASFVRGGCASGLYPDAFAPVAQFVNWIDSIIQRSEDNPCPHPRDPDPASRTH
Chain of cytochrome P450 2C8 (P10632 whole entry, looked up): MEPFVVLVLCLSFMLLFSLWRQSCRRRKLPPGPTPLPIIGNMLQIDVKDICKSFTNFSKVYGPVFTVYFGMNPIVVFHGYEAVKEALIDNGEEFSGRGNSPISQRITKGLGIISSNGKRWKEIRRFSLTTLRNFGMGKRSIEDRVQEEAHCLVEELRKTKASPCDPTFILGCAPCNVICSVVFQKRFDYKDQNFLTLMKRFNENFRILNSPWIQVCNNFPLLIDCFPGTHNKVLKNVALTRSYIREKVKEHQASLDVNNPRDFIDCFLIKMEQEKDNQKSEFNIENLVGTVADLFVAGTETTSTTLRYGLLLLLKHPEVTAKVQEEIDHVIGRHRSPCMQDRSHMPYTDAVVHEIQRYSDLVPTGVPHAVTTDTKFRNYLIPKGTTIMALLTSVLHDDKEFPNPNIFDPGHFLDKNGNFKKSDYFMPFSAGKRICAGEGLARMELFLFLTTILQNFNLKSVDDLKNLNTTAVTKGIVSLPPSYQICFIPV
Chain of cytochrome P450 2C9 (P11712 whole entry, looked up): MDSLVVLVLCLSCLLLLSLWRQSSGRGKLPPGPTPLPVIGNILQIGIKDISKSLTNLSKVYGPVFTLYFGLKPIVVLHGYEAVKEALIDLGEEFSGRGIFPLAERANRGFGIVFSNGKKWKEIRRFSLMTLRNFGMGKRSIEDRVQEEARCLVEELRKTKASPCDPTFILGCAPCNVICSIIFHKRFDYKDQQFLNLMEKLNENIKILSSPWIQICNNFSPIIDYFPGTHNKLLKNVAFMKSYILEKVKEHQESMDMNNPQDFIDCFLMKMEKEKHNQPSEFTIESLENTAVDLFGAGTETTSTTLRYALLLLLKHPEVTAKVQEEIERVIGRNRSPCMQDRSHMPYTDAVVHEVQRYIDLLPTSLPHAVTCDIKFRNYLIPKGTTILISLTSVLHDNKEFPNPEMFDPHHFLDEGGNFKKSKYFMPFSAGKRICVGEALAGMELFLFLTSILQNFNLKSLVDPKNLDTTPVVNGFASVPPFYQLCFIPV
Chain of cytochrome P450 2C19 (P33261 whole entry, looked up): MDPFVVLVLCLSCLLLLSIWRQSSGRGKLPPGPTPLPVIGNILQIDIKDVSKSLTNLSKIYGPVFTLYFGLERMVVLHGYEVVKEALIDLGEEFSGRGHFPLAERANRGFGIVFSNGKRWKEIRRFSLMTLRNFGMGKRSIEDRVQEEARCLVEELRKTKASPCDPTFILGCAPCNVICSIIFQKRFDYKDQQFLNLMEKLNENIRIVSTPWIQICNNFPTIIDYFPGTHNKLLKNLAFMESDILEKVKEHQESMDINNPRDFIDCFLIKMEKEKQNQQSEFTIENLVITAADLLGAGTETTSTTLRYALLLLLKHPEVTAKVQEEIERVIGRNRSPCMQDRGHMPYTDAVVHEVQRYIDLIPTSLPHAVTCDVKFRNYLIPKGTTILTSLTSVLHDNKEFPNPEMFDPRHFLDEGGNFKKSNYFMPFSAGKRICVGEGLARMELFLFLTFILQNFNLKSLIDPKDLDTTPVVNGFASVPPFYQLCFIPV

For the molecule `CN1C(=O)N(c2cccc(C(F)(F)F)c2)C2=C(C(=O)CC2)C1c1ccc(C#N)cc1CO` (single isomer, unassigned) [Example A.1A, 3-Hydroxymethyl-4-[3-methyl-2,5-dioxo-1-(3-trifluoromethyl-phenyl)-2,3,4,5,6,7-hexahydro-1H-cyclopentapyrimidin-4-yl]-benzonitrile], the IC50 (commonly the concentration that gives 50% inhibition) against cytochrome P450 2C8 is greater than 50000 nM; against neutrophil elastase [2] (IC50), less than 1 nM; against cytochrome P450 2C9, greater than 50000 nM; against cytochrome P450 2C19 it was greater than 50000 nM. In addition, at neutrophil elastase [1], the concentration for a half-maximal effect (EC50) – broadly, the concentration at which the effect is half-maximal – worked out at 2 nM. In addition, the Papp A→B at 10 μM in “in vitro” worked out at 53 ×10⁻⁶ cm/s. Moreover, the Papp B→A at 10 μM in “in vitro” was found to be 98 ×10⁻⁶ cm/s. For the same molecule, on hERG potassium channel, the inhibition (commonly the change of the read-out against control, counted positive when it falls) at 10 µM is 7%. The concentration in solution in “physchem” (solubility at 24 h) was 58 µg/mL (≈ 131 µM).

In the case of `CN1C(=O)N(c2cccc(C(F)(F)F)c2)C2=C(C(=O)CC2)C1c1ccc(C#N)cc1S(=O)(=O)CCCO` (single isomer, unassigned) [Example B.1.3A], the half-life at 1 μM in series [3] (setting [4]) was found to be 1.52 h. Also, in the series “in vitro”, the Papp A→B at 10 μM came to 9.9 ×10⁻⁶ cm/s and the Papp B→A at 10 μM worked out at 130 ×10⁻⁶ cm/s. Moreover, the solubility (in general, how much of the substance goes into solution per volume) at 24 h in the series “physchem” amounted to 93 µg/mL (≈ 174 µM).

Molecule `CN1C(=O)N(c2cccc(C(F)(F)F)c2)C2=C(C(=O)CC2)[C@H]1c1ccc(C#N)cc1[S+](C)[O-]` (single isomer, unassigned) [Example C.1B, 3-Methanesulfinyl-4-[3-methyl-2,5-dioxo-1-(3-trifluoromethyl-phenyl)-2,3,4,5,6,7-hexahydro-1H-cyclopentapyrimidin-4-yl]-benzonitrile] had an EC50 at neutrophil elastase [1] of 1 nM. Also, the “t1/2 INVITRO” value in [3] (setting [4]) amounted to 1.55 h. Also, the IC50 at neutrophil elastase [2] (read-out: IC50) is less than 1 nM. The same molecule yielded a PEAB with Caco-2 cells of 3.7 ×10⁻⁶ cm/s. Moreover, the Papp B→A at 10 μM in the series “in vitro” is 41 ×10⁻⁶ cm/s. In the series “physchem”, the Aqueous solubility (as a rule, the dissolved amount per volume that the medium holds) is 61 µg/mL.

With `CC[S+]([O-])c1cc(C#N)ccc1C1C2=C(CCC2=O)N(c2cccc(C(F)(F)F)c2)C(=O)N1C` (single isomer, unassigned) [Example C.5.1, 3-Ethanesulfinyl-4-[3-methyl-2,5-dioxo-1-(3-trifluoromethyl-phenyl)-2,3,4,5,6,7-hexahydro-1H-cyclopentapyrimidin-4-yl]-benzonitrile], the half-life at 1 μM in series [3] (setting [4]) is 1.83 h. In the series on Caco-2 cells, this molecule had a PEAB of 7.1 ×10⁻⁶ cm/s. For the same molecule, in the series “in vitro”, the Papp B→A at 10 μM came out at 57 ×10⁻⁶ cm/s. This molecule returned a solubility at 24 h in “physchem” of 86 µg/mL (≈ 176 µM).

In the case of `CC[S+]([O-])c1cc(C#N)ccc1C1C2=C(CCC2=O)N(c2cccc(C(F)(F)F)c2)C(=O)N1C` (single isomer, unassigned) [Example C.5.2, 3-Ethanesulfinyl-4-[3-methyl-2,5-dioxo-1-(3-trifluoromethyl-phenyl)-2,3,4,5,6,7-hexahydro-1H-cyclopentapyrimidin-4-yl]-benzonitrile], the “t1/2 INVITRO” value in series [3] is greater than 2.17 h. In the series on Caco-2 cells, this molecule displayed a PEAB of 16 ×10⁻⁶ cm/s and a PEBA of 82 ×10⁻⁶ cm/s. In “physchem”, the Aqueous solubility amounted to 69 µg/mL.

Take `CN1C(=O)N(c2ccnc(C(F)(F)F)c2)C2=C(C(=O)CC2)C1c1ccc(C#N)cc1S(C)(=O)=O` (single isomer, unassigned) [Example D.1A, 3-Methanesulfonyl-4-[3-methyl-2,5-dioxo-1-(2-trifluoromethyl-pyridin-4-yl)-2,3,4,5,6,7-hexahydro-1H-cyclopentapyrimidin-4-yl]-benzonitrile]: the half-life at 1 μM in series [3] (setting [4]) is greater than 2.17 h. Further, in “in vitro”, the Papp A→B at 10 μM amounted to 19 ×10⁻⁶ cm/s and the Papp B→A at 10 μM is 81 ×10⁻⁶ cm/s. For the same molecule, on hERG potassium channel, 10 µM produced 8% inhibition.

`CCS(=O)(=O)c1cc(C#N)ccc1C1C2=C(CCC2=O)N(c2ccnc(C(F)(F)F)c2)C(=O)N1C` (single isomer, unassigned) [Example D.3B, 3-Ethanesulfonyl-4-[3-methyl-2,5-dioxo-1-(2-trifluoromethyl-pyridin-4-yl)-2,3,4,5,6,7-hexahydro-1H-cyclopentapyrimidin-4-yl]-benzonitrile]: on neutrophil elastase [1], the EC50 came out at 1 nM. Besides, in [3] (setting [4]), the half-life at 1 μM came out at 2 h. On neutrophil elastase [2] (read-out: IC50), the IC50 worked out at 1.4 nM. In “in vitro”, the Papp A→B at 10 μM is 21 ×10⁻⁶ cm/s and the Papp B→A at 10 μM is 85 ×10⁻⁶ cm/s.

At neutrophil elastase [1], `CCNC(=O)N1C(=O)N(c2ccnc(C(F)(F)F)c2)C2=C(C(=O)CC2)C1c1ccc(C#N)cc1S(=O)(=O)CC` (single isomer, unassigned) [Example D.4.1A, 4-(4-cyano-2-ethanesulfonyl-phenyl)-2,5-dioxo-1-(2-trifluoromethyl-pyridin-4-yl)-1,2,4,5,6,7-hexahydro-cyclopentapyrimidine-3-carboxylic acid ethylamide] returned an EC50 of less than 1 nM. In addition, the half-life at 1 μM in [3] (setting [4]) was greater than 2.17 h. The molecule also gave an IC50 on neutrophil elastase [2] (IC50) of less than 1 nM. For the same molecule, in “in vitro”, the Papp A→B at 10 μM came out at 3.6 ×10⁻⁶ cm/s and the Papp B→A at 10 μM came out at 61 ×10⁻⁶ cm/s. For the same molecule, the solubility at 24 h in the series “physchem” worked out at 81 µg/mL (≈ 144 µM).

`CCS(=O)(=O)c1cc(C#N)ccc1C1NC(=O)N(c2cccc(C(F)F)c2)C2=C1C(=O)CC2` (single isomer, unassigned) [Example D.5A, 4-[1-(3-Difluoromethyl-phenyl)-2,5-dioxo-2,3,4,5,6,7-hexahydro-1H-cyclopentapyrimidin-4-yl]-3-ethanesulfonyl-benzonitrile] yielded an EC50 at neutrophil elastase [1] of 1 nM. For the same molecule, the half-life at 1 μM in series [3] (setting [4]) is greater than 2.17 h. On neutrophil elastase [2] (IC50), this molecule came in with a 50% inhibitory concentration (IC50) of 2.2 nM. Besides, in “in vitro”, the Papp A→B at 10 μM came out at 7.5 ×10⁻⁶ cm/s and the Papp B→A at 10 μM is 78 ×10⁻⁶ cm/s. In the series “physchem”, this molecule showed a solubility at 24 h of 67 µg/mL (≈ 142 µM).

`CNC(=O)N1C(=O)N(c2cc(C(F)(F)F)ccn2)C2=C(C(=O)CC2)C1c1ccc(C#N)cc1S(C)(=O)=O` (stereo not drawn) [D.4.4] registered an EC50 at neutrophil elastase [1] of 2 nM. Also, the half-life at 1 μM in series [3] (setting [4]) is greater than 2.17 h. Further, the IC50 on neutrophil elastase [2] (read-out: IC50) was less than 1 nM. In addition, in the series “in vitro”, the Papp A→B at 10 μM is 3.1 ×10⁻⁶ cm/s and the Papp B→A at 10 μM was 60 ×10⁻⁶ cm/s.

`CCNC(=O)N1C(=O)N(c2cc(C(F)(F)F)ccn2)C2=C(C(=O)CC2)C1c1ccc(C#N)cc1S(C)(=O)=O` (stereo not drawn) [D.4.5] displayed an EC50 on neutrophil elastase [1] of 1 nM. Also, the half-life at 1 μM in series [3] (setting [4]) is greater than 2.17 h. The IC50 on neutrophil elastase [2] (read-out: IC50) was less than 1 nM. Further, in “in vitro”, the Papp A→B at 10 μM was 7.3 ×10⁻⁶ cm/s and the Papp B→A at 10 μM stood at 67 ×10⁻⁶ cm/s. This molecule yielded a solubility at 24 h in the series “physchem” of 78 µg/mL (≈ 142 µM).

`CN1C(=O)N(c2cccc(C(F)(F)F)c2)C2=C(C(=O)CC2)C1c1ccc(C#N)cc1C(C)(C)O` (stereo not drawn) [Example A.2, 3-(1-Hydroxy-1-methyl-ethyl)-4-[3-methyl-2,5-dioxo-1-(3-trifluoromethyl-phenyl)-2,3,4,5,6,7-hexahydro-1H-cyclopentapyrimidin-4-yl]-benzonitrile] displayed a 50% effective concentration (EC50) on neutrophil elastase [1] of 1 nM. The half-life at 1 μM in series [3] (setting [4]) was greater than 2.17 h. Further, the IC50 at neutrophil elastase [2] (read-out: IC50) is less than 1 nM. In addition, in the series “in vitro”, the Papp A→B at 10 μM was determined as 92 ×10⁻⁶ cm/s and the Papp B→A at 10 μM stood at 80 ×10⁻⁶ cm/s.

Turning to `CC(O)c1cc(C#N)ccc1C1C2=C(CCC2=O)N(c2cccc(C(F)(F)F)c2)C(=O)N1C` (stereo not drawn) [Example A.3, 3-(1-Hydroxy-ethyl)-4-[3-methyl-2,5-dioxo-1-(3-trifluoromethyl-phenyl)-2,3,4,5,6,7-hexahydro-1H-cyclopentapyrimidin-4-yl]-benzonitrile], the half-life at 1 μM in series [3] (setting [4]) is greater than 2.17 h. In addition, in “in vitro”, the Papp A→B at 10 μM was 67 ×10⁻⁶ cm/s and the Papp B→A at 10 μM was found to be 87 ×10⁻⁶ cm/s. The molecule further registered a solubility at 24 h in “physchem” of 65 µg/mL (≈ 143 µM).

Turning to `CN1C(=O)N(c2cccc(C(F)(F)F)c2)C2=C(C(=O)CC2)[C@H]1c1ccc(C#N)cc1S(=O)(=O)CCO` [Example B.1.2B], the IC50 at cytochrome P450 2C8 is greater than 50000 nM; against neutrophil elastase [2] (IC50), less than 1 nM; on cytochrome P450 2C9, greater than 50000 nM; against cytochrome P450 2C19, greater than 50000 nM. The same molecule yielded a concentration for a half-maximal effect (EC50) at neutrophil elastase [1] of 1 nM. Moreover, the half-life at 1 μM in series [3] (setting [4]) was greater than 2.17 h. Moreover, the Papp A→B at 10 μM in the series “in vitro” was found to be 12 ×10⁻⁶ cm/s. Moreover, the Papp B→A at 10 μM in “in vitro” was determined as 120 ×10⁻⁶ cm/s. Besides, at hERG potassium channel, the inhibition at 10 µM worked out at 12%. Besides, the solubility at 24 h in the series “physchem” came to 73 µg/mL (≈ 141 µM).

Regarding `CCS(=O)(=O)c1cc(C#N)ccc1C1C2=C(CCC2=O)N(c2cccc(C(F)F)c2)C(=O)N1C` (stereo not drawn) [Example D.6, 4-[1-(3-Difluoromethyl-phenyl)-3-methyl-2,5-dioxo-2,3,4,5,6,7-hexahydro-1H-cyclopentapyrimidin-4-yl]-3-ethanesulfonyl-benzonitrile], the IC50 at neutrophil elastase [2] (read-out: IC50) was less than 1 nM.

On to `CCS(=O)(=O)c1cc(C#N)ccc1C1C2=C(CCC2=O)N(c2cccc(C(F)F)c2)C(=O)N1C(=O)NC` (stereo not drawn) [Example D.7, 4-(4-Cyano-2-ethanesulfonyl-phenyl)-1-(3-difluoromethyl-phenyl)-2,5-dioxo-1,2,4,5,6,7-hexahydro-cyclopentapyrimidine-3-carboxylic acid methylamide], for which, on neutrophil elastase [2] (read-out: IC50), the IC50 is less than 1 nM.

For the molecule `CS(=O)(=O)c1cc(C#N)ccc1C1C2=C(CCC2=O)N(c2cccc(C(F)(F)F)c2)C(=O)N1CCO` (stereo not drawn) [Example E.1, 4-[3-(2-Hydroxy-ethyl)-2,5-dioxo-1-(3-trifluoromethyl-phenyl)-2,3,4,5,6,7-hexahydro-1H-cyclopentapyrimidin-4-yl]-3-methanesulfonyl-benzonitrile], the IC50 on neutrophil elastase [2] (Neutrophil Elastase assay, substrate MeOSuc-Ala-Ala-Pro-Val-AMC, read-out: IC50) is less than 1 nM.

The record behind these values is patent publication US9475779B2, “Substituted bicyclic dihydropyrimidinones and their use as inhibitors of neutrophil elastase activity” (priority 2014, dated 2016).
